Measurements: patent publication US12653191B2, “Active compound combinations” (Bayer Aktiengesellschaft, priority 2020, dated 2026)
Read-outs that look alike come from different tables or passages of the source.

Key:
Alternaria alternate = experiment: in vitro-Test with fungal microorganisms, Method A (tables A1-A12); type: cell-based, Alternaria alternata; settings: Alternaria, applied alone, read-out: Efficacy %
How it was run: (§1)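 Broth microdilution-type growth test in potato dextrose medium with spores or mycelium of the fungus, compound pre-dried from methanol/emulsifier. Efficacy from 620 nm extinction after 3-5 days at 20° C, scaled 0% (untreated growth) to 100% (no growth).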

Botrytis cinerea [1] = experiment: in vitro-Test with fungal microorganisms, Method A (tables B1-B14); type: cell-based; settings: Botrytis cinerea
How it was run: as §1

Cercospora beticola [2] = experiment: in vitro-Test with fungal microorganisms, Method A (tables C1-C10); type: cell-based; settings: Cercospora beticola, read-out: Efficacy %
How it was run: as §1

Diaporthe citri = experiment: in vitro-Test with fungal microorganisms, Method A (tables F1-F11); type: cell-based; settings: Diaporthe citri, read-out: Efficacy
How it was run: as §1

Fusarium culmorum = experiment: in vitro-Test with fungal microorganisms, Method A (tables G1-G4); type: cell-based
Experimental: (§2) Example: In Vitro-Test with Fungal Microorganisms
(§3) Wells of 96-well microtiter plates are filled with 10 μl of a preparation of test compound or compound combination in methanol+emulsifier alkylaryl-polyglycol-ether. Thereafter, the solvent is evaporated in a hood. At the next step, 100 μl of liquid potato dextrose medium is given into each well, that has been amended with an appropriate concentration of spores or mycelium suspension of the test fungus.
(§4) With the aid of a photometer, the extinction in all wells is measured at the wavelength of 620 nm.
(§5) The microtiter plates are incubated at 20° C. and 85% relative humidity. The inhibition of growth is determined again photometrically 3-5 days after the application. Efficacy is calculated in relation to the untreated control, 0% efficacy means fungal growth as high as in untreated control while 100% efficacy means no fungal growth is measured.
(§6) The data in tables A1 to A12, B1 to B14, C1 to C10, D1 to D8, E1 to E8, F1 to F11, G1 to G4, H1 to H4 and I1 to I5 were collected according to Method A. The data in tables A13 to A22, B15 to B18, C11 to C20, E9 to E16, F12 to F15, G5 to G15, H5 to H8, I6 to I11 and J1 to J11 were collected according to Method B.

[3] = test system: Ustilago segetum var. avenae; experiment: in vitro-Test with fungal microorganisms, Method A (tables I1-I5); type: cell-based; settings: alone, read-out: Efficacy %
Experimental: as §2, §3, §4, §5, §6

Alternaria alternata = experiment: in vitro-Test with fungal microorganisms, Method B (tables A13-A22); type: cell-based; settings: Alternaria alternata, read-out: Efficacy
How it was run: (§7)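 Efficacy scale: 0% means growth equal to the untreated control, 100% means none detected. Compounds are dried from methanol with emulsifier before adding inoculated growth medium; incubation at 20° C., 85% relative humidity for 3 to 7 days precedes photometric inhibition readout.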

Botrytis cinerea [4] = experiment: in vitro-Test with fungal microorganisms, Method B (tables B15-B18); type: cell-based; settings: Botrytis cinerea, alone, read-out: Efficacy %
Experimental: as §2
as §3, with “30” for “10”, “200” for “100”, “growth” for “potato dextrose”, “given,” for “given into each well,”
With the aid of a photometer, the extinction in all wells is measured at the wavelength of 600 nm.
The microtiter plates are incubated for 3 to 7 days at 20° C. and 85% relative humidity. After the incubation inhibition of growth is determined photometrically. Efficacy is calculated in relation to the untreated control, 0% efficacy means fungal growth as high as in untreated control while 100% efficacy means no fungal growth is measured.
as §6

Cercospora beticola [5] = experiment: in vitro-Test with fungal microorganisms, Method B (tables C11-C20); type: cell-based; settings: Cercospora beticola, read-out: Efficacy %
How it was run: as §7

[6] = test system: Colletotrichum lindemuthianum; experiment: in vitro-Test with fungal microorganisms, Method A (tables D1-D8); type: cell-based; settings: Colletotrichum lindemuthianum, read-out: Efficacy %
Experimental: as §2, §3, §4, §5, §6

Cordana musae [7] = experiment: in vitro-Test with fungal microorganisms, Method A (tables E1-E8); type: cell-based; settings: Neocordana musae, single substance, read-out: Efficacy %
Experimental: as §2, §3, §4, §5, §6

Cordana musae [8] = experiment: in vitro-Test with fungal microorganisms, Method B (tables E9-E16); type: cell-based; settings: Neocordana musae, single active, read-out: Efficacy
How it was run: as §7

[9] = test system: Ustilago segetum var. avenae; experiment: in vitro-Test with fungal microorganisms, Method B (tables I6-I11); type: cell-based; settings: 1 ppm; read-out: Efficacy %
How it was run: as §7

Colletotrichum coccodes = experiment: in vitro-Test with fungal microorganisms, Method B (tables J1-J11); type: cell-based; settings: Colletotrichum coccodes, read-out: Efficacy %
How it was run: as §7

`Cc1cc(C2=NOCC(Cc3ccc(Br)cc3C)N2)c(Oc2cccc(Cl)c2F)nn1` (racemic) [Compound I-300, rac-5-[(4-bromo-2-methylphenyl)methyl]-3-[3-(3-chloro-2-fluorophenoxy)-6-methylpyridazin-4-yl]-5,6-dihydro-4H-1,2,4-oxadiazine] gave an inhibition of growth at 0.1 ppm (Alternaria alternate; 0.1 ppm) of 100%, an inhibition of growth at 0.0008 ppm (Botrytis cinerea [1]; 0.0008 ppm, read-out: Efficacy) of 0% and an inhibition of growth at 0.004 ppm (Botrytis cinerea [1]; 0.004 ppm, read-out: Efficacy) of 0%. For the same compound, the inhibition of growth at 0.02 ppm (Botrytis cinerea [1]; 0.02 ppm, read-out: Efficacy) was 0%, the inhibition of growth at 0.1 ppm (Botrytis cinerea [1]; 0.1 ppm, read-out: Efficacy) was 49% and the inhibition of growth at 0.0008 ppm (Cercospora beticola [2]; 0.0008 ppm alone) was 0%. The inhibition of growth at 0.0008 ppm (Cercospora beticola [2]; 0.0008 ppm) was 0%, the inhibition of growth at 0.004 ppm (Cercospora beticola [2]; 0.004 ppm alone) was 0% and the inhibition of growth at 0.004 ppm (Cercospora beticola [2]; 0.004 ppm) was 0%. For the same compound, the inhibition of growth at 0.02 ppm (Cercospora beticola [2]; 0.02 ppm alone) was 10%, the inhibition of growth at 0.02 ppm (Cercospora beticola [2]; 0.02 ppm) was 10% and the inhibition of growth at 0.1 ppm (Cercospora beticola [2]; 0.1 ppm alone) was 19%. It also gave an inhibition of growth at 0.1 ppm (Cercospora beticola [2]; 0.1 ppm) of 19%, an inhibition of growth at 0.0008 ppm (Diaporthe citri; applied alone, 0.0008 ppm) of 0% and an inhibition of growth at 0.004 ppm (Diaporthe citri; applied alone, 0.004 ppm) of 10%. It also gave an inhibition of growth at 0.02 ppm (Diaporthe citri; applied alone, 0.02 ppm) of 22%, an inhibition of growth at 0.1 ppm (Diaporthe citri; applied alone, 0.1 ppm) of 44% and an inhibition of growth at 0.0008 ppm (Fusarium culmorum; Fusarium culmorum, 0.0008 ppm, alone, read-out: Efficacy) of 2%. The inhibition of growth at 0.004 ppm (Fusarium culmorum; Fusarium culmorum, 0.004 ppm, alone, read-out: Efficacy) was 6%, the inhibition of growth at 0.02 ppm (Fusarium culmorum; Fusarium culmorum, 0.02 ppm, alone, read-out: Efficacy) was 5% and the inhibition of growth at 0.1 ppm (Fusarium culmorum; Fusarium culmorum, 0.1 ppm, alone, read-out: Efficacy) was 2%. It also gave an inhibition of growth at 0.0008 ppm ([3]; 0.0008 ppm) of 0%, an inhibition of growth at 0.004 ppm ([3]; 0.004 ppm) of 0% and an inhibition of growth at 0.02 ppm ([3]; 0.02 ppm) of 0%. For the same compound, the inhibition of growth at 0.1 ppm ([3]; 0.1 ppm) was 0%.
Work on `O=C1c2ccccc2C(=O)N1SC(Cl)(Cl)Cl` [(5.012) folpet, folpet] yielded an inhibition of growth at 2 ppm (Alternaria alternate; 2.0 ppm) of 100%, an inhibition of growth at 10 ppm (Alternaria alternate; 10.0 ppm) of 100% and an inhibition of growth at 0.2 ppm (Alternaria alternata) of 6%. The inhibition of growth at 1 ppm (Alternaria alternata) was 99%, the inhibition of growth at 0.008 ppm (Alternaria alternata; single compound, 0.008 ppm) was 6% and the inhibition of growth at 0.04 ppm (Alternaria alternata; single compound, 0.04 ppm) was 3%. The inhibition of growth at 0.2 ppm (Alternaria alternata; single compound) was 7%, the inhibition of growth at 1 ppm (Alternaria alternata; single compound) was 83% and the inhibition of growth at 2 ppm (Botrytis cinerea [1]; alone, 2.0 ppm, read-out: Efficacy %) was 100%. It also gave an inhibition of growth at 10 ppm (Botrytis cinerea [1]; alone, 10.0 ppm, read-out: Efficacy %) of 100%, an inhibition of growth at 0.008 ppm (Botrytis cinerea [4]; 0.008 ppm) of 8% and an inhibition of growth at 0.04 ppm (Botrytis cinerea [4]; 0.04 ppm) of 1%. The inhibition of growth at 1 ppm (Botrytis cinerea [4]; 1 ppm) was 16%, the inhibition of growth at 0.4 ppm (Cercospora beticola [2]; 0.4 ppm) was 50% and the inhibition of growth at 0.008 ppm (Cercospora beticola [5]; 0.008 ppm) was 7%. For the same compound, the inhibition of growth at 1 ppm (Cercospora beticola [5]) was 100%, the inhibition of growth at 0.04 ppm (Cercospora beticola [5]; single compound, 0.04 ppm) was 0% and the inhibition of growth at 0.2 ppm (Cercospora beticola [5]; single compound, 0.2 ppm) was 16%. The inhibition of growth at 1 ppm (Cercospora beticola [5]; single compound) was 86%, the inhibition of growth at 0.08 ppm ([6]; mixing partner alone, 0.08 ppm) was 0% and the inhibition of growth at 0.4 ppm ([6]; mixing partner alone, 0.4 ppm) was 0%. It also gave an inhibition of growth at 2 ppm ([6]; mixing partner alone, 2.0 ppm) of 100%, an inhibition of growth at 10 ppm ([6]; mixing partner alone, 10.0 ppm) of 100% and an inhibition of growth at 0.08 ppm ([6]; single active at 0.08 ppm) of 0%. The inhibition of growth at 0.4 ppm ([6]; single active at 0.4 ppm) was 13%, the inhibition of growth at 2 ppm ([6]; single active at 2.0 ppm) was 98% and the inhibition of growth at 10 ppm ([6]; single active at 10.0 ppm) was 100%. It also gave an inhibition of growth at 0.08 ppm (Cordana musae [7]; 0.08 ppm) of 5%, an inhibition of growth at 0.4 ppm (Cordana musae [7]; 0.4 ppm) of 10% and an inhibition of growth at 2 ppm (Cordana musae [7]; 2.0 ppm) of 100%. For the same compound, the inhibition of growth at 0.008 ppm (Cordana musae [8]; 0.008 ppm) was 0%, the inhibition of growth at 0.04 ppm (Cordana musae [8]; 0.04 ppm) was 0% and the inhibition of growth at 0.2 ppm (Cordana musae [8]; 0.2 ppm) was 17%. The inhibition of growth at 1 ppm (Cordana musae [8]; 1 ppm) was 62%, the inhibition of growth at 0.08 ppm (Diaporthe citri; Table F10, 0.08 ppm alone) was 12% and the inhibition of growth at 2 ppm (Diaporthe citri; Table F10, 2.0 ppm alone) was 99%. It also gave an inhibition of growth at 10 ppm (Diaporthe citri; Table F10, 10.0 ppm alone) of 100%, an inhibition of growth at 0.08 ppm (Diaporthe citri; applied alone, 0.08 ppm) of 1% and an inhibition of growth at 0.4 ppm (Diaporthe citri; applied alone, 0.4 ppm) of 56%. The inhibition of growth at 2 ppm (Diaporthe citri; applied alone, 2.0 ppm) was 99%, the Efficacy (Fusarium culmorum; 0.4 ppm alone) was 0% and the Efficacy (Fusarium culmorum; 10.0 ppm, alone) was 100%. It also gave an inhibition of growth at 0.08 ppm (Fusarium culmorum; Fusarium culmorum, 0.08 ppm, alone, read-out: Efficacy) of 0%, an inhibition of growth at 2 ppm (Fusarium culmorum; Fusarium culmorum, 2.0 ppm, alone, read-out: Efficacy) of 100% and an inhibition of growth at 0.4 ppm ([3]; 0.4 ppm) of 15%. It also gave an inhibition of growth at 2 ppm ([3]; 2.0 ppm) of 100%, an inhibition of growth at 10 ppm ([3]; 10.0 ppm) of 100% and an inhibition of growth at 1 ppm [9] of 6%. The inhibition of growth at 0.008 ppm (Colletotrichum coccodes; 0.008 ppm) was 1%, the inhibition of growth at 0.04 ppm (Colletotrichum coccodes; 0.04 ppm) was 3% and the inhibition of growth at 1 ppm (Colletotrichum coccodes; 1 ppm) was 66%.
